Measured values published in US20140178305A1, “IDENTIFICATION AND USE OF ANXIOLYTIC COMPOUNDS” (CALIFORNIA INSTITUTE OF TECHNOLOGY, priority 2012, published 2014).

Test system: MRGPRB4+ fibres
Test: Two-photon in vivo calcium imaging (GCaMP3.0) of central afferent fibres through a spinal cord laminectomy, chemical stimuli
Parameters: species or system mouse
Settings: CNO, mice injected only with GCaMP3.0 viruses (no hM3DREADD)
Procedure: Mice expressing reporters and/or Cre recombinase targeted to the MrgprB4 locus were generated by homologous recombination in embryonic stem cells, according to standard procedures. Heterozygous neonates from MrgprD-Cre and MrgprB4-Cre mice were injected intraperitoneally with Cre-dependent AAV8 viruses expressing GCaMP3.0 or mGCaMP3.0 or hM3(Gq-coupled) DREADD, and imaged as adults (≧8 weeks old).
Electrophysiology experiments on ex vivo skin-nerve preparations from adult heterozygous Mrgprb4-EGFPf reporter mice were performed as described in Woodbury, et al. J. Comp. Neurol. 436, 304-323 (2001). For calcium imaging, after a dorsal laminectomy the spinal column was stabilized and filled with imaging solution (see below for details). Imaging was performed using a two-photon laser-scanning microscope (Ultima, Prairie Inc.) using an Olympus 40×0.8 N.A. water immersion objective, at 128×128 pixel resolution with an acquisition rate of 8-12 frames per second. Mechanical stimuli were delivered using a custom-modified No. 5 sable paint brush or serrated forceps, in a manner electronically time-stamped to image acquisition, as may be seen in FIGS. 18A-18C and further discussed below. Stimuli were delivered to each mouse in a series of trials, separated by a few minutes; each trial consisted of one or more stimuli delivered typically at intervals of several seconds. Chemical stimuli were delivered to the spinal cord using a Pipetman pipette and to the periphery using a syringe pump. Calcium responses were analysed using custom software written in Matlab (see below for more details). For calculating ΔF/F [(Fav−F0)/F0], F0 is the average of the first ten frames of the recording period.
Mice 2 months or older were sedated by i.p. injection of a mix of ketamine (100 mg/kg), xylazine (15 mg/kg), acepromazine (2.5 mg/kg in 0.9% NaCl). During surgery, body temperature was maintained at 37° C. with a heating blanket.
A dorsal laminectomy was performed mostly at spinal level L2-L4 (but occasionally at L1-L3) as described in Johannssen, et al. J. Physiol. (Lond.) 588:3397-3402 (2010), but without removing the dura. The spinal column was stabilized using Narishige STS-A spinal clamps. In addition a head-holding adaptor from Kopf (923-B Mouse Gas Anaesthesia Head Holder) was used that has installed an anaesthesia/gas mask for positioning the mouse head. In this apparatus the gas is applied through a standard hose barb positioned above the nose on the mask. The inlet fills a large gas chamber around the snout, a second hose barb below the mask is provided for vacuuming off excess, expelled gasses. The animals were maintained under continuous anaesthesia for the duration of the imaging experiments with 1-2% isofluorane or with hourly injections of the above ketamine mix. A well was built around the exposed spinal cord using Gelseal (Amersham Biosciences Corp) and Kwik Sil Adhesive (WPI). Warm imaging solution (in mM: 130 NaCl, 3 KCl, 2.5 CaCl2, 0.6 6H2O.MgCl2, 10 HEPES without Na, 1.2 NaHCO3, 10 glucose, pH7.45 with NaOH) (37° C.) was repeatedly applied to prevent drying and maintain tissue integrity, and to allow the use of immersion objectives. During imaging the body temperature of the animals was maintained at 37° C. with a heating blanket and an air-therm heater (WPI) placed inside the microscope area.
Imaging experiments were performed under a two-photon laser-scanning microscope (Ultima, Prairie Instruments Inc.). Live images were acquired at 8-12 frames per second, at depths below the pia ranging from 100 to 250 μm, using an Olympus 40×0.8 N.A. water immersion objective, at 128×128 pixel resolution with a laser tuned to 940 nm wavelength, and emission filters 525/50 nm and 595/50 nm for green and red fluorescence, respectively. Laser power was adjusted to be 20-25 mW at the focal plane (maximally 35 mW), depending on the imaging depth and level of expression of GCaMP3.0. […]

Question: For C[N+]1([O-])CCN(C2=Nc3cc(Cl)ccc3Nc3ccccc32)CC1 [CNO, Clozapine-N-oxide], which “calcium transients after application to the spinal cord” value is on record?
Answer: no CNO responses
